Reference: patent publication US8440615B2, “Pharmaceutical and/or cosmetic composition containing active-principle activators of aconitase” (Societe d'Extraction des Principes Actifs (Vincience), priority 2007, dated 2013)
Each block holds one compound with its values, some of them ahead of it. Residues, ends and D or L forms follow the SMILES beside them.

How the values were obtained:
[1] = tested on: dermal fibroblasts; test: Intracellular ATP synthesis, ATP Bioluminescence Assay Kit HS II; type: cell-based; conditions: 1% solution of a 50-ppm peptide solution
Method: The aim of this study was to determine the effect of the SEQ ID No. 1 peptide on mitochondrial activity. It is the ATP produced by the mitochondria that serves as a biochemical marker for this activity.
Protocol: This study was conducted using an ATP Bioluminescence Assay Kit HS II (Roche Applied Science). Dermal fibroblasts were treated with a 1% solution of a 50-ppm solution containing the SEQ ID No. 1 peptide, representative of the peptide family according to the invention, for a period of 1 to 3 hours. At the end of the incubation time, the tubes were emptied of their medium and rinsed with 2 ml of cold PBS before adding 250 μl of a lysing buffer provided in the kit. The cells of each tube were then scraped up and collected in 14-ml tubes. Each tube was rinsed with 2×500 μl of cold PBS, and the whole was collected again in the respective tubes. […] The ATP measurement was performed on these samples: 50 μl of this dilution was placed in a Luma cuvette and 50 μl of […] was added. After 10 seconds, the luminescence reading was begun. The values were standardized relative to the quantity of proteins for each sample. The measurements were made using the Biocounter M2010A Luma®/3M equipment.

[2] = tested on: aconitase; test: Total (cytoplasmic and mitochondrial) enzymatic activity of aconitase in fibroblasts, Bioxytech Aconitase-340 kit; type: cell-based, human
Method: (§1) The aim of this study was to determine the effect of the SEQ ID No. 2 peptide on the enzymatic activity of aconitase. For this, the total enzymatic activity (cytoplasmic and mitochondrial) and the mitochondrial enzymatic activity of aconitase were measured.
Protocol: Normal human fibroblasts were treated with a 1% solution of a 50-ppm SEQ ID No. 2 peptide representative of the peptide family according to the invention, for 48 hr, and were then subjected to UVB radiation of 100 mJ/cm^2. After irradiation, the cells were treated under the same conditions for another 24 hr. Negative controls were achieved under the same conditions, but in the absence of the SEQ ID No. 2 peptide.
To evaluate the enzymatic activity of aconitase, the fibroblasts were then collected and centrifuged in PBS buffer. […]
(§2) The measurement of the enzymatic activity of aconitase was made using the Oxis Bioxytech Aconitase-340 assay kit (Oxis International), according to the following principle: aconitase causes isomerization of the citrate to isocitrate. […] It is the formation of NADPH that is quantified spectrophotometrically at 340 nm. Under the experimental conditions chosen, the rate of NADPH formation is proportional to the quantity of aconitase. The analysis of the kinetics of NADPH appearance enables the concentration of aconitase in the sample to be calculated (in mU/ml)

[3] = tested on: primary human fibroblasts; test: Comet test (single-cell gel electrophoresis), DNA damage after UVB irradiation; type: cell-based; conditions: UVB 100 mJ/cm^2, 0.5 ppm peptide
Method: A study of the cytoprotective effect of SEQ ID No. 2 peptide was made by evaluating the damage caused at the DNA level. This study was done using the comet (or single-cell gel electrophoresis) test, a quick and sensitive micro-electrophoretic technique that enables breaks in the DNA to be visualized and quantified in individual cells.
Protocol: Primary human fibroblasts were seeded in […] dishes. When the cells reached 70% coalescence, they were treated with SEQ ID No. 2 peptide diluted to 1% (starting from a 50-ppm solution) for 24 hours. The cells were then subjected to UVB irradiation at 100 mJ/cm^2, then cultivated in the presence of the peptide for another 24 hours. The dishes not treated with the peptide served as controls. A cellular suspension of 100,000 cells/ml was then achieved, 500 μl were removed, inserted into an agarose solution, and run between slide and cover glass. The cells were lysed in the cold. The DNA was then denatured with an alkaline buffer and subjected to a brief electrophoresis (250 mA for 30 minutes), and stained with propidium iodate. The slides were then observed under a fluorescence microscope. An altered cell sees its DNA stretch toward the anode in proportion to the number of breaks present in the DNA, and it forms a “comet”. The highly degraded DNA is found in the “tail” of the comet. An intact cell remains round, and its DNA is then packed into the area of the comet “head”.
The evaluation of DNA breaks was done using image-analyzer software that enables the percentage of DNA degradation to be determined, by means of a quantitative evaluation of the “tail moment”, a parameter defined as the product of the length of the comet by the percentage of DNA in its distal portion.

[4] = tested on: normal human keratinocytes; test: Ultrastructure of mitochondria by electron microscopy; type: cell-based; conditions: 1% solution of a 50-ppm mother-solution for 72 hours
Method: The aim of this study was to determine the action of the SEQ ID No. 2 peptide on mitochondria, by observing the ultrastructures with the electron microscope.
Protocol: Normal human keratinocytes were treated with a 1% solution of a 50-ppm mother-solution of SEQ ID No. 2 peptide for 72 hours. Negative controls were achieved under the same conditions, but in the absence of the said peptide.
The cells were then fixed using Karnovsky's fixative (20 ml of 16% paraformaldehyde/8 ml of 50% glutaraldehyde/25 ml of 0.2 M sodium phosphate buffer/25 ml of water) for 1 hr at ambient temperature, and then left overnight at 4° C. The culture media were scraped into the Karnovsky's fixative and then the cells were centrifuged for 5 minutes at 5000 rpm. The supernatant was isolated and the pellet resuspended in 1 ml of 0.1 M cacodylate. The samples were then kept at 4° C. until their processing for electron microscopy observation.

[5] = tested on: human dermal fibroblasts; type: cell-based; conditions: 48 h, 0.5 ppm
Method: The aim of this study was to determine the protective effect of the SEQ ID No. 2 peptide with respect to dermal fibroblasts subjected to an oxidative stress caused by oxygenated water (H2O2) in a concentration of 4 mM or 5 mM. For this, cellular viability tests were performed using the MTT technique. Protocol: Human dermal fibroblasts were treated with a 1% solution of a 50-ppm SEQ ID No. 2 peptide for 24 hours, subjected to an oxidative stress caused by 4 mM or 5 mM of H2O2 for 30 minutes, and then cultivated for another 24 hours in the presence of the same concentration of SEQ ID No. 2 peptide. Controls treated with neither the peptide nor H2O2 and controls treated with the peptide alone were achieved under the same conditions. At the end of the experiment, the cells were incubated in a solution containing 0.1 mg/ml of MTT (3-[4,5-dimethylthiazole-2-yl]-2,5-diphenyltetrazolium bromide) according to the protocol described in example 3

[6] = biological target: T1, mitochondrial aconitase (Homo sapiens, UniProt Q99798); test: Enzymatic activity of mitochondrial aconitase in the mitochondrial fraction of fibroblasts, Bioxytech Aconitase-340 kit; type: cell-based; conditions: concentration printed as 0.05 ppm
T1 construct: endogenous in cells; host or cells: normal human fibroblasts, mitochondrial fraction (10,000 g pellet)
T1 sequence (Q99798 28-780): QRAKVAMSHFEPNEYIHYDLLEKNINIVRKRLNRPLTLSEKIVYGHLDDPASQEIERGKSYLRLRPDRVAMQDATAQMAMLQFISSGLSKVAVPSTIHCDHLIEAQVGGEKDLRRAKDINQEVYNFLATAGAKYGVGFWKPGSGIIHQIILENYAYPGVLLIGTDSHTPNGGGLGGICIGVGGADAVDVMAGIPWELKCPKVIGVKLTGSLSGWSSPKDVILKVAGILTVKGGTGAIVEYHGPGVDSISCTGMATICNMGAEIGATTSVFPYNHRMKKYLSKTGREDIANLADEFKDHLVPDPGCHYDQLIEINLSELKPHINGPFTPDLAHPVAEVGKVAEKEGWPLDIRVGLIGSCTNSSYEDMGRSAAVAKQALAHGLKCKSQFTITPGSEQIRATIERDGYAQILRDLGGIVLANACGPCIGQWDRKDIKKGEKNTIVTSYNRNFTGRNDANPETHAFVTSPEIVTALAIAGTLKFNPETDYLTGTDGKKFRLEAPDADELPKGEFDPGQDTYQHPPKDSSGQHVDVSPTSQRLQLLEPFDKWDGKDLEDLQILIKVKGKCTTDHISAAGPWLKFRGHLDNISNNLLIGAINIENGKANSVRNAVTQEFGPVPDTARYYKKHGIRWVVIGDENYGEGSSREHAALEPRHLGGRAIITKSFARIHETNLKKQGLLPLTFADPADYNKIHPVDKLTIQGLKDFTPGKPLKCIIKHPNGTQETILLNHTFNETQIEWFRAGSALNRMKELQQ
Method: as §1
[…] After irradiation, the cells were treated under the same conditions for another 24 hr. Negative controls were achieved under the same conditions, but in the absence of the SEQ ID No. 2 peptide.
To evaluate the enzymatic activity of aconitase, the fibroblasts were then collected and centrifuged in PBS buffer. A portion of the cells was then processed to measure total enzymatic activity; another portion was used to isolate the mitochondrial fraction according to the following protocol. […]
as §2

Compound: Ser-Cys-Ile-Asn-Thr (SCINT) [SEQ ID No. 1]
amount of intracellular ATP compared to the untreated cells ([1]; after 3 hours): clear increase
increase in the amount of intracellular ATP compared to the untreated cells ([1]; after one hour): 43%

Compound: Ser-Cys-Ile-Asn-Ser (SCINS) [SEQ ID No. 5]
total enzymatic activity of aconitase after UVB irradiation ([2]; UVB 100 mJ/cm^2, peptide treatment before (48 hr) and after (24 hr) irradiation): enabled the observed reduction to be limited

enzymatic activity of mitochondrial aconitase [6]: strongly stimulates
Compound: CC[C@H](C)[C@H](NC(=O)[C@H](CS)NC(=O)[C@@H](N)CO)C(=O)N[C@@H](CC(N)=O)C(=O)N[C@H](C(N)=O)[C@@H](C)O [SEQ ID No. 2, Ser-Cys-Ile-Asn-Thr-NH2] (H-SCINT-NH2; N-terminus assumed)
reduction of "tail moment" (DNA damage) ([3]; versus UVB control): 25%
Measurement of "tail moment" ([3]; UVB control 106,563): 80,221
% of "tail moment" relative to UV control ([3]; UVB control = 100): 75%
increase in total enzymatic activity of aconitase compared with untreated control cells ([2]; not irradiated, 1% solution of a 50-ppm peptide, n=5): 56.3%
ultrastructural characteristics of the organelles [4]: ultrastructural characteristics suggesting an increase in metabolic activity
% viability [5]: 121.13%
